According to patent US6130220A, “Sulfamide-metalloprotease inhibitors” (Syntex (USA) Inc., priority 1999, dated 2000):

Experiments:
[1] = system: TNF-α release from Human Monomac 6 cells; assay: Inhibition of TNF release in vitro, Monomac 6 cells, LPS/PMA; type: cell-based; conditions: 2 h; for inhibition at 10 µM: MONO-MAC-6, 10 μM, read-out: TNF-α % inhibition, Conc. 10 μM; for inhibition at 2 µM: MONO-MAC-6, 2 μM, read-out: TNF-α % inhibition, Conc. 2 μM
Description: The activity of compounds of this invention in inhibiting the TNF release was determined, using the a minor modification of the method described in Pradines-Figueres, A. and Raetz, C. R. H., J. Biol. Chem., 267 (32), 23261, (1992).
Human Monomac 6 cells (Ziegler-Heitbrock, H. W. L., et al., Int. J. Cancer, 41, 456, (1988)) were cultured at 37° C. in RPMI 1640 medium containing 10% fetal calf serum to a density of 1×10^5 cells/ml. 0.23 ml of these cells were placed in each well of a tissue culture plate and the cells were incubated for 15 min. The test compounds were dissolved in above mentioned medium and added and the incubation was continued for an additional 15 min. 10 μl of an lipopolysaccharide/phorbol-12-myristate-13-acetate (LPS/PMA) mixture was added such that the final concentration of lipopolysaccharide was 10 ng/ml and the final concentration of phorbol-12-myristate-13-acetate was 30 ng/ml. The cells were incubated for 2 h after which the plate was centrifuged and the medium was removed and analyzed for TNF content. The analysis was performed using a TNF Quantikine® Inmunoassay (R & D Systems, Minneapolis, Minn. 55413) by following the manufacturer's protocol.
The TNF-α inhibitory activity of test materials, i.e., the measure of the TNF-α content in the test group relative to the vehicle treated group (control group) was: […]

Collagenase-III = assay: MMP enzymatic assay, hydrolysis of MCA-Pro-Leu-Gly-Leu-DPA-Ala-Arg-NH2, Collagenase-III; type: biochemical; conditions: 37° C., pH 7.5, 2.5% DMSO
Description: The propeptide and catalytic domain portion of human collagenase-3 was expressed in E. Coli as an N-terminal fusion protein with ubiquitin. After purification, the catalytic domain was released by treatment with 1 mM APMA for 1 hour at 37° C., and then purified by zinc chelate chromatography.
Rat collagenase-3 was purified in active form from the culture media of uterine smooth muscle cells as described in Roswit, W. T. et al., Arch. Biochem. Biophys., 225, 285-295 (1983).
The matrix metalloprotease inhibitory activity of compounds of this invention in vitro was determined based on the hydrolysis of MCA-Pro-Leu-Gly-Leu-DPA-Ala-Arg-NH2 (Bachem, Inc.) at 37° C. as described in Knight, C. G., et al., FEBS Lett., 296, 263-266 (1992).
The matrix metalloprotease enzyme was diluted with assay buffer (50 mM Tricine pH 7.5, 200 mM NaCl, 10 mM CaCl2, and 0.005% Brij-35) containing 10 μmole of above substrate dissolved in DMSO. Compounds of the invention dissolved in DMSO or only DMSO (control samples) were added such that the final DMSO concentration in all assays was 2.5%. The fluorescence changes were monitored with a Perkin-Elmer LS-50B flourimeter using an excitation wavelength of 328 nm and an emission wavelength of 393 nm.

In the case of `CN(Cc1ccccc1)S(=O)(=O)N(CC(=O)NO)Cc1ccccc1` [compound 355], the inhibition at 10 µM [1] is reported as < 15% and the IC50 (Collagenase-III) is reported as 56 nM.
`COCCN(CC(=O)NO)S(=O)(=O)N1CCN(c2ccc(Cl)cc2)CC1` [compound 16] was tested, and the inhibition at 10 µM [1] was < 15% and the IC50 (Collagenase-III) was 21 nM.
Compound `Cc1cc(C2=CCN(S(=O)(=O)N3CCN(C(=O)OC(C)(C)C)CC3C(=O)NO)CC2)ccc1F` (racemic) [compound 384] has an inhibition at 10 µM [1] of 96%.
In the case of `O=C(NO)[C@H]1CCCCN1S(=O)(=O)N1CCc2c([nH]c3ccccc23)C1` [compound 314, N-hydroxy-1-[1,2,3,4-tetrahydro-beta-carboline-2-sulfonyl]piperidine-2-(R)-carboxamide], the inhibition at 2 µM [1] is reported as 72%.
Work on `CC(C)[C@@H](NS(=O)(=O)N1CCC(c2nc(-c3ccccc3)c[nH]2)CC1)C(=O)NO` [compound 133, N-hydroxy-2-(R)-{[4-(4-phenylirnidazol-2-yl)piperidine-1-sulfonyl]amino}-3-methylbutyramide] yielded an inhibition at 10 µM [1] of 32% and an IC50 (Collagenase-III) of 18 nM.
In the case of `O=C(NO)[C@H](CSCc1ccccc1)NS(=O)(=O)N1CCN(c2ccc(Cl)cn2)CC1` [compound 102], the inhibition at 10 µM [1] is reported as 56% and the IC50 (Collagenase-III) is reported as 0.92 nM.
With `CN(Cc1ccccc1)S(=O)(=O)N(CC(=O)O)Cc1ccccc1` [compound 430, 2-[benzyl-(benzylmethylaminosulfonyl)amino]acetic acid] the IC50 (Collagenase-III) was 890 nM.
For `CN(C)C(=O)N1CCN(S(=O)(=O)N2CCC(c3ccc(F)cc3)CC2)[C@@H](C(=O)NO)C1` [compound 313, N-hydroxy-4-(N,N-dimethylaminocarbonyl)-1-[4-(4-fluorophenyl)piperidine-1-sulfonyl]piperazine-2-(R)-carboxamide], the inhibition at 2 µM [1] was 73%.
`CC(C)[C@H](C(=O)NO)N(CCCc1cccnc1)S(=O)(=O)N1CCC(Oc2ccc(Br)cc2)CC1` [compound 105] gave an inhibition at 10 µM [1] of 20% and an IC50 (Collagenase-III) of 0.59 nM.
With `O=C(NO)C1CCCCN1S(=O)(=O)N1CC=C(c2ccc(Cl)cc2)CC1` (racemic) [compound 375, N-hydroxy-1-[4-(4-chlorophenyl)-1,2,3,6-tetrahydropyridine-1-sulfonyl]piperidine-2-(RS)-carboxamide] the inhibition at 2 µM [1] was 85%.
`O=C(NO)C(NS(=O)(=O)N1CC=C(c2ccc(Cl)cc2)CC1)c1ccc(F)cc1` (centres unmarked) [compound 409] was tested, and the inhibition at 10 µM [1] was 86%.
`C[C@@H](NS(=O)(=O)N1CCN(c2ccc(Cl)cc2)CC1)C(=O)O` [compound 414, 2-(R)-{[4-(4-chlorophenyl)piperazino-1-sulfonyl]amino}propionic acid] was tested, and the IC50 (Collagenase-III) was 3400 nM.
`O=C(NO)C1CCCCN1S(=O)(=O)N1CCC(c2noc3cc(F)ccc23)CC1` (racemic) [compound 286, N-hydroxy-1-[4-(6-fluorobenzisoxazol-3-yl)piperidine-1-sulfonyl]piperidine-2-(RS)-carboxamide] showed an IC50 (Collagenase-III) of 0.063 nM.
`C[C@H](C(=O)O)N(Cc1ccccc1)S(=O)(=O)NCc1ccccc1` [compound 431] showed an IC50 (Collagenase-III) of 6500 nM.
In the case of `O=C(NO)C1(NS(=O)(=O)N2CCN(c3ccc(Cl)cc3)CC2)CCCCC1` [compound 345, N-hydroxy-1-{[4-(4-chlorophenyl)piperazine-1-sulfonyl]amino}-cyclohexane-1-carboxamide], the IC50 (Collagenase-III) is reported as 6.6 nM.
With `Cc1cc(C2=CCN(S(=O)(=O)N3CCN(C(=O)OCc4ccccc4)CC3C(=O)NO)CC2)ccc1F` (racemic) [compound 381, N-hydroxy-4-benzyloxycarbonyl-1-[4-(4-fluoro-3-methylphenyl)-1,2,3,6-tetrahydropyridine-1-sulfonyl]piperazine-2-(RS)-carboxamide] the inhibition at 2 µM [1] was 10%.
`CC(C)[C@H](C(=O)NO)N(Cc1ccccc1)S(=O)(=O)N1CCCCC1` [compound 1, N-hydroxy-2-(R)-[benzyl-(piperidine-1-sulfonyl)amino]-3-methylbutyramide] showed an IC50 (Collagenase-III) of 660 nM.
Compound `O=C(NO)C1(NS(=O)(=O)N2CCN(c3ccc(Cl)cn3)CC2)CCCCC1` [compound 342] has an IC50 (Collagenase-III) of 2.1 nM.
